Laboratory results taken from patent US8481544B2, “Antibacterial compositions” (Biota Europe Limited, priority 2006, dated 2013).
Values after ≈ are worked out from the molar mass of the structure shown.

Assays:
[1] = test system: Enterococcus faecalis ATCC 29212; assay: MIC against Enterococcus faecalis ATCC 29212; format: cell-based; settings: ATCC29212; Enterococcus faecalis ATCC 29212; read-out: MICs against Enterococcus faecalis, Activity
Procedure, shortened: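 MIC measured by broth microdilution or agar dilution following CLSI guidelines (M7-A7 for aerobes, M11-A6 for anaerobes).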

[2] = test system: Staphylococcus aureus; assay: mouse Staphylococcus aureus septicaemia model of infection, survival at day 7; format: in vivo; settings: 1 and 6 hours after inoculation
Description: Some of the Example compounds were also tested for activity in a mouse Staphylococcus aureus septicaemia model of infection.

| MIC [1] | melting point | Structure (SMILES) | Percent survival ([2]; 2 × 100 mg/kg intraperitoneal) | Percent survival ([2]; 2 × 30 mg/kg intraperitoneal) |
| --- | --- | --- | --- | --- |
| 0.25 to 1 µg/mL (≈ 0.663 to 2.65 µM) | 345 °C | CCNC(=O)Nc1nc2cc(-c3cccnc3)cc(Br)c2s1 [Example 3, 1-(7-Bromo-5-pyridin-3-yl-benzothiazol-2-yl)-3-ethyl-urea] | – | – |
| < 0.25 µg/mL | 256.7 °C | CCNC(=O)Nc1nc2cc(-c3cccnc3)cc(-c3cccc(C(F)(F)F)n3)c2s1 [Example 89, 1-Ethyl-3-[5-pyridin-3-yl-7-(6-trifluoromethyl-pyridin-2-yl)-benzothiazol-2-yl]-urea] | – | – |
| < 0.25 µg/mL | 300.1 °C | CCNC(=O)Nc1nc2cc(-c3cccnc3)cc(-c3cccc(OC)n3)c2s1 [Example 167, 1-Ethyl-3-[7-(6-methoxy-pyridin-2-yl)-5-pyridin-3-yl-benzothiazol-2-yl]-urea] | – | – |
| 0.25 to 1 µg/mL (≈ 0.688 to 2.75 µM) | 220 °C | CCNC(=O)Nc1nc2cc(-c3cccnc3)cc(-c3ccc[nH]3)c2s1 [Example 90, 1-Ethyl-3-[5-pyridin-3-yl-7-(1H-pyrrol-2-yl)-benzothiazol-2-yl]-urea] | – | – |
| < 0.25 µg/mL | 249.9 °C | CCNC(=O)Nc1nc2cc(-c3cccnc3)cc(-c3cccc(Cl)n3)c2s1 [Example 88, 1-[7-(6-Chloro-pyridin-2-yl)-5-pyridin-3-yl-benzothiazol-2-yl]-3-ethyl-urea] | – | – |
| < 0.25 µg/mL | 235 °C | CCOC(=O)Nc1nc2cc(-c3cccnc3)cc(-c3ccccn3)c2s1 [Example 174, (5-Pyridin-3-yl-7-pyridin-2-yl-benzothiazol-2-yl)-carbamic acid ethyl ester] | – | – |
| < 0.25 µg/mL | 231 °C | CCNC(=O)Nc1nc2cc(-c3cccnc3)cc(-c3ccc(C)cn3)c2s1 [Example 175, 1-Ethyl-3-[7-(5-methyl-pyridin-2-yl)-5-pyridin-3-yl-benzothiazol-2-yl]-urea] | – | – |
| < 0.25 µg/mL | – | CCNC(=O)Nc1nc2cc(-c3cccnc3)cc(-c3cncs3)c2s1 [Example 161, 1-Ethyl-3-(5-pyridin-3-yl-7-thiazol-5-yl-benzothiazol-2-yl)-urea] | – | – |
| < 0.25 µg/mL | – | CCNC(=O)Nc1nc2cc(-c3cccnc3)cc(-c3cnccn3)c2s1 [Example 101, 1-Ethyl-3-(7-pyrazin-2-yl-5-pyridin-3-yl-benzothiazol-2-yl)-urea] | – | – |
| < 0.25 µg/mL | – | CCNC(=O)Nc1nc2cc(-c3cccnc3)cc(-c3ccc(Cl)cn3)c2s1 [Example 130, 1-[7-(5-Chloro-pyridin-2-yl)-5-pyridin-3-yl-benzothiazol-2-yl]-3-ethyl-urea] | – | – |
| 0.25 to 1 µg/mL (≈ 0.597 to 2.39 µM) | – | CCNC(=O)Nc1nc2cc(-c3ccc(CNC)nc3)cc(-c3ccccn3)c2s1 [Example 67, 1-Ethyl-3-[5-(6-methylaminomethyl-pyridin-3-yl)-7-pyridin-2-yl-benzothiazol-2-yl]-urea] | – | – |
| < 0.25 µg/mL | – | CCNC(=O)Nc1nc2cc(-c3cccnc3)cc(-c3cnc(N)cn3)c2s1 [Example 131, 1-[7-(5-Amino-pyrazin-2-yl)-5-pyridin-3-yl-benzothiazol-2-yl]-3-ethyl-urea] | – | – |
| 0.25 to 1 µg/mL (≈ 0.664 to 2.66 µM) | – | CCNC(=O)Nc1nc2cc(-c3cccnc3)cc(-c3ncccn3)c2s1 [Example 93, 1-Ethyl-3-(5-pyridin-3-yl-7-pyrimidin-2-yl-benzothiazol-2-yl)-urea] | – | – |
| 0.25 to 1 µg/mL (≈ 0.639 to 2.55 µM) | – | CCNC(=O)Nc1nc2cc(-c3cncc(N)n3)cc(-c3cccnc3)c2s1 [Example 45, 1-[5-(6-Amino-pyrazin-2-yl)-7-pyridin-3-yl-benzothiazol-2-yl]-3-ethyl-urea] | – | – |
| 0.25 to 1 µg/mL (≈ 0.543 to 2.17 µM) | – | CCNC(=O)Nc1nc2cc(-c3cccnc3)cc(-c3cccc(N4CCOCC4)n3)c2s1 [Example 166, 1-Ethyl-3-[7-(6-morpholin-4-yl-pyridin-2-yl)-5-pyridin-3-yl-benzothiazol-2-yl]-urea] | – | – |
| 2 to 16 µg/mL (≈ 5.11 to 40.9 µM) | – | CCNC(=O)Nc1nc2cc(-c3ccc(O)nc3)cc(-c3cccnc3)c2s1 [Example 16, 1-Ethyl-3-[5-(6-hydroxy-pyridin-3-yl)-7-pyridin-3-yl-benzothiazol-2-yl]-urea] | – | – |
| 0.25 to 1 µg/mL (≈ 0.661 to 2.64 µM) | – | CCNC(=O)Nc1nc2cc(-c3cccnc3)cc(-c3cnn(C)c3)c2s1 [Example 83, 1-Ethyl-3-[7-(1-methyl-1H-pyrazol-4-yl)-5-pyridin-3-yl-benzothiazol-2-yl]-urea] | – | – |
| 0.25 to 1 µg/mL (≈ 0.574 to 2.3 µM) | – | CCNC(=O)Nc1nc2cc(-c3cncc(OC)c3)cc(-c3cncc(OC)c3)c2s1 [Example 143, 1-[5,7-Bis-(5-methoxy-pyridin-3-yl)-benzothiazol-2-yl]-3-ethyl-urea] | – | – |
| 2 to 16 µg/mL (≈ 3.5 to 28 µM) | – | CCNC(=O)Nc1nc2cc(-c3ccc(CN4CCOCC4)cc3)cc(-c3ccc(CN4CCOCC4)cc3)c2s1 [Example 146, 1-[5,7-Bis-(4-morpholin-4-ylmethyl-phenyl)-benzothiazol-2-yl]-3-ethyl-urea] | – | – |
| 0.25 to 1 µg/mL (≈ 0.618 to 2.47 µM) | – | CCNC(=O)Nc1nc2cc(-c3cccnc3)cc(-c3ccc(CN)cn3)c2s1 [Example 97, 1-[7-(5-Aminomethyl-pyridin-2-yl)-5-pyridin-3-yl-benzothiazol-2-yl]-3-ethyl-urea] | – | – |

| Structure (SMILES) | MIC [1] | melting point | Percent survival ([2]; 2 × 100 mg/kg intraperitoneal) | Percent survival ([2]; 2 × 30 mg/kg intraperitoneal) |
| --- | --- | --- | --- | --- |
| CCNC(=O)Nc1nc2cc(-c3cccnc3)cc(-c3cccnc3)c2s1 [Example 4, 1-(5,7-Di-pyridin-3-yl-benzothiazol-2-yl)-3-ethyl-urea] | 0.25 to 1 µg/mL (≈ 0.666 to 2.66 µM) | – | 100 | – |
| CCNC(=O)Nc1nc2cc(-c3cccnc3)cc(-c3ncccc3F)c2s1 [Example 91, 1-Ethyl-3-[7-(3-fluoro-pyridin-2-yl)-5-pyridin-3-yl-benzothiazol-2-yl]-urea] | < 0.25 µg/mL | – | – | 100 |
